# According to paper PMC11650361 (Archiv Der Pharmazie, 2024):
# Like-named read-outs stand apart in the source and are kept apart here.
# Tests used:
# [1] = system: HEK293T (human embryonic kidney) cells; experiment: Cytotoxicity, MTT assay, HEK293T; assay type: cell-based; details: HEK-293T, MTT, 24 h, mean ± SEM, n = 3, read-out: HEK293T IC50
# [2] = system: HepG2 cells (human hepatocellular carcinoma); experiment: Cytotoxicity, MTT assay, HepG2; assay type: cell-based; details: HepG2, MTT, 24 h, mean ± SEM, n = 3, read-out: Hep G2 IC50
# [3] = ABTS radical cation scavenging activity assay; details: for IC50: concentration reducing ABTS radical by 50%, 1 h; for ABTS^•+‐scavenging activity, TEAC: relative to Trolox, 1 h incubation, n.a. = inactive
# [4] = target: T1, PAS of Electrophorus electricus AChE (EeAChE) (Electrophorus electricus, UniProt O42275); assay type: binding; details: 20 µM compound concentration
# T1 construct: purchased Sigma-Aldrich type VI-S; host or cells: electric eel tissue
# T1 sequence (O42275 24-633): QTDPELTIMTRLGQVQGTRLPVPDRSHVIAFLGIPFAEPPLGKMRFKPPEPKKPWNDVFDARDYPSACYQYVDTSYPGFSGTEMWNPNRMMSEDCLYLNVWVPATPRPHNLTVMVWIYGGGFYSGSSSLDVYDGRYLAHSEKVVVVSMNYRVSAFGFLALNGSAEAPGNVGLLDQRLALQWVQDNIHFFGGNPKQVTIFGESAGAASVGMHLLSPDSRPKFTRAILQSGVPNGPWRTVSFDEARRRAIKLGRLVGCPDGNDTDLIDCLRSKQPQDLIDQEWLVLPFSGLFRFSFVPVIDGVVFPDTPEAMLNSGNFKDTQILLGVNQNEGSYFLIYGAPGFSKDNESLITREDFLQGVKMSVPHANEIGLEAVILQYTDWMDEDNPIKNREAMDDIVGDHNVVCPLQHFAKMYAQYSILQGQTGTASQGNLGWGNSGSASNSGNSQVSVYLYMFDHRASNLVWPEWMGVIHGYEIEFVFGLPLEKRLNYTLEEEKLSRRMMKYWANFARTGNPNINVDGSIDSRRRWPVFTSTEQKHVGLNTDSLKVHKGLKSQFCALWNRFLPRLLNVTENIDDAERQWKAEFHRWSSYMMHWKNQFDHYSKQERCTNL
# Method: The ability of the test compounds to competitively displace propidium was evaluated by the fluorescence method,^[ [65] ^] as described in detail in Makhaeva et al.^[ [66] ^] […] After 15 min of incubation of the test compounds at a concentration of 20 μM with a 7 μM solution of EeAChE in 1 mM Tris‐HCl buffer, pH 8.0, 25°C, propidium iodide (final concentration 8 μM) was added. Then, the solutions were incubated for 15 min and the fluorescence spectrum was recorded (530 nm (excitation) and 600 nm (emission)). […] Measurements were performed in triplicate on a FLUOStar Optima microplate reader (BMG LabTech).
# The 7 μM EeAChE was incubated with the test compound at a concentration of 20 μM in 1 mM Tris-HCl buffer pH 8.0, 25 °C, for 15 min. After that, propidium iodide was added at final concentration of 8 μM. The samples were incubated for 15 min and the fluorescence spectrum (530 nm (excitation) and 600 nm (emission)) was taken. […] The measurements were carried out in triplicate on a FLUOStar Optima microplate reader. The degree of propidium displacement (% displacement) from the PAS of EeAChE was calculated by formula (1):
# % Displacement = 100 – (IFAChE+ Propidium + inhibitor / IFAChE + Propidium) × 100 (1),
# where IFAChE + Propidium is the fluorescence intensity of the propidium associated with AChE in the absence of the test compound (taken as 100%), and IFAChE + Propidium + inhibitor is the fluorescence intensity of the propidium associated with AChE in the presence of the test compound.
# human erythrocyte AChE = target: T2, human erythrocyte AChE (Homo sapiens, UniProt P22303); experiment: biochemical; assay type: biochemical; details: for IC50: human erythrocyte AChE, mean ± SEM, n = 3
# T2 construct: purchased Sigma-Aldrich; Milamed, Perm, Russia (supplement); host or cells: human erythrocytes
# T2 sequence (P22303 32-617 isoform P22303-2 limits assumed): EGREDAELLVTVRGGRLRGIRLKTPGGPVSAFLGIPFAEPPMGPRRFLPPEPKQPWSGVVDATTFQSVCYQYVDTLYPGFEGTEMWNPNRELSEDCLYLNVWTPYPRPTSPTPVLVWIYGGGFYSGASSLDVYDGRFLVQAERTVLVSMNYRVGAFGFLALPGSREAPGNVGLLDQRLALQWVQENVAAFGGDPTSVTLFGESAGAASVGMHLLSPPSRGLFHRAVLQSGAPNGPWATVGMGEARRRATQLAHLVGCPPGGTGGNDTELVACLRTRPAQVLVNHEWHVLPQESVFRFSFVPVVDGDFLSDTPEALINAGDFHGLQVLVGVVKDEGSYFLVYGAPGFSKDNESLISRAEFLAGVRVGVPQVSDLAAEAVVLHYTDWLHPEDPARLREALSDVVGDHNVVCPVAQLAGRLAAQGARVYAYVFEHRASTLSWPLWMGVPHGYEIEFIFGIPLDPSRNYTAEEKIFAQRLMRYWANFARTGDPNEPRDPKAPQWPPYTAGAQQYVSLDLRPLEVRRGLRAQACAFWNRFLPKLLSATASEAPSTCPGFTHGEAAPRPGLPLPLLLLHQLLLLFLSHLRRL
# [5] = system: SH‐SY5Y (human neuroblastoma) cells; experiment: Cytotoxicity, MTT assay, SH-SY5Y; assay type: cell-based; details: MTT, 24 h, mean ± SEM, n = 3, read-out: SH‐SY5Y IC50
# porcine liver CES = experiment: In vitro CES inhibition (4-NPA substrate); assay type: biochemical; details: % inhibition at 20 μM; n.a. = not active
# Method: The esterase profile of the synthesized conjugates was determined. This included an assessment of their inhibition of cholinergic targets AChE and BChE along with a structurally related enzyme CES (EC 3.1.1.1), which hydrolyzes numerous ester‐containing drugs and is considered as an off‐target for anti‐AD agents.^[ [9], [40] ^] Human erythrocyte AChE, equine serum BChE, and porcine liver CES were used.^[ [40], [41], [42] ^]
# Initially, we used a single concentration of 20 µM for all compounds.
# ^a All experiments were carried out in accordance with the standard protocols approved by IPAС RAS. Human erythrocyte AChE, equine serum BChE were purchased from Milamed (Perm, Russia). Porcine liver CES, substrates, and reference compounds were from Sigma-Aldrich (St. Louis, MO, USA). The activity of enzymes was measured spectrophotometrically, as described in detail in ^[1] using ATCh iodide, BTCh iodide, and 4-NPA as substrates for AChE, BChE, and CES, respectively. Experimental conditions: K,Na-phosphate buffer (100 mM), 25 °С, pH 7.5 for AChE and BChE and pH 8.0 for CES assay. Measurements were carried out on a FLUOStar Optima microplate reader (BMG Labtech, Ortenberg, Germany). Test compounds were dissolved in DMSO; final concentration of solvent in the incubation mixture was 2% (v/v).
# β‐amyloid (1–42) (Aβ42) = β‐amyloid (1–42) (Aβ42) (Homo sapiens, UniProt P05067); experiment: Inhibition of Aβ42 self-aggregation (thioflavin T fluorescence); assay type: biochemical; details: for inhibition at 100 µM: read-out: Inhibition of Aβ42 self‐aggregation, %
# Chain of β‐amyloid (1–42) (Aβ42) (P05067 672-713 limits assumed): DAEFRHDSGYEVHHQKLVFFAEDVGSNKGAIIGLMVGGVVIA
# Method: Inhibition of Aβ42 self‐aggregation by test compounds was studied using the ThT fluorescence method^[ [67], [68] ^] with minor modifications as described in detail in Makhaeva et al.^[ [16] ^] Lyophilized hexamfluoroisopropanol‐pretreated Aβ42 (GenicBio Limited, 1 mg) was dissolved in DMSO to obtain a stable 500 μM solution. […] Myricetin and propidium iodide in the same concentration were used as references. […] Each assay was run in triplicate.
# ^c The inhibitory effect of the test compounds toward Aβ42 self-aggregation was determined using the thioflavin T (ThT) fluorescence method ^[5-7] with minor modifications as described in detail in ^[8]. Lyophilized HFIP-pretreated Aβ42 from BACHEM (Bubendorf, Switzerland) was used. […] Myricetin and propidium iodide were used as reference compounds (positive controls). Analyses were performed with a FLUOStar Optima microplate reader (LabTech, Ortenberg, Germany). The inhibition (%) of Aβ42 self-aggregation by the test compounds was calculated by the following equation: […]
# where IFi and IFo are the fluorescence intensities obtained for Aβ42 in the presence and in the absence of inhibitor, respectively, after subtracting the fluorescence of respective blanks.
# equine serum BChE = target: T3, equine serum BChE (Equus caballus, UniProt P81908); experiment: biochemical; details: for IC50: equine serum BChE, mean ± SEM, n = 3
# T3 construct: purchased Sigma-Aldrich; Milamed, Perm, Russia (supplement); host or cells: horse serum
# T3 sequence (P81908 whole entry): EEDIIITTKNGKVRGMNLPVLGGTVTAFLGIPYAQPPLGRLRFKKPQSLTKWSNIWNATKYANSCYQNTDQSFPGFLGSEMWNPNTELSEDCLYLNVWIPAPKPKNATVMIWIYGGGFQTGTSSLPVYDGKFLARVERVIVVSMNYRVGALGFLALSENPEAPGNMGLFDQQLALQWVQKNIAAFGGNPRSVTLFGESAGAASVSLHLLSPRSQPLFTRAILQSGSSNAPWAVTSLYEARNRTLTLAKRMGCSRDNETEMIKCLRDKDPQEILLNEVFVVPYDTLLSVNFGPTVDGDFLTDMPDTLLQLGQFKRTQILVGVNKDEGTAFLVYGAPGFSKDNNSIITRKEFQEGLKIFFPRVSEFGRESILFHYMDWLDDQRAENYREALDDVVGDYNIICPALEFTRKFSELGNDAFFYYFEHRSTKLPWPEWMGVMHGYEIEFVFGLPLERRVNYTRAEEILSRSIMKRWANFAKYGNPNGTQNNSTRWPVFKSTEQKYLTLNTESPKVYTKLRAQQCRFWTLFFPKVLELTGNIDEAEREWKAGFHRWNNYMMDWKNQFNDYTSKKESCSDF
# eqBChE = target: T4, eqBChE (Equus caballus, UniProt P81908); experiment: Kinetic study of BChE inhibition, steady-state inhibition constants; assay type: biochemical; details: for αK i (noncompetitive inhibition constant), eqBChE / Ki: means ± SEM; for Ki: read-out: K i (competitive inhibition constant), eqBChE
# T4 construct: purchased Sigma-Aldrich; Milamed, Perm, Russia (supplement); host or cells: horse serum
# T4 sequence (P81908 whole entry): as above
# Method: (§1) We assessed the mechanisms of AChE and BChE inhibition by performing a thorough analysis of enzyme kinetics. After a 5 min incubation at 25°C (for temperature equilibration) with three increasing concentrations of inhibitor and six decreasing substrate concentrations, the residual enzyme activity was measured as described above for enzymatic assays.
# AChE = target: T5, AChE (Homo sapiens, UniProt P22303); experiment: Kinetic study of AChE inhibition, steady-state inhibition constants; assay type: biochemical; details: for αK i (noncompetitive inhibition constant), AChE / Ki: means ± SEM; for Ki: read-out: K i (competitive inhibition constant), AChE
# T5 construct: purchased Sigma-Aldrich; Milamed, Perm, Russia (supplement); host or cells: human erythrocytes
# T5 sequence (P22303 32-617 isoform P22303-2 limits assumed): as the sequence (P22303 32-617 isoform P22303-2 limits assumed) above
# Method: as §1
structure (smiles),measurement,setting,value
"O=C(NCCCCNc1c2c(nc3c1CCC3)CCCC2)c1ccccc1O [7a, N‐{4‐[(2,3,5,6,7,8‐Hexahydro‐1H‐cyclopenta[b]quinolin‐9‐yl)amino]butyl}−2‐hydroxybenzamide]",IC50,[1],38400 ± 3600 nM
same,IC50,[2],74700 ± 3400 nM
same,IC50,[3],17600 ± 800 nM
same,"ABTS^•+‐scavenging activity, TEAC",[3],0.97 ± 0.04
same,"Propidium displacement, %",[4],10.8 ± 0.8%
same,IC50,human erythrocyte AChE,1520 ± 140 nM
same,IC50,[5],49600 ± 3700 nM
same,"CES inhibition, %",porcine liver CES,5.0 ± 0.1%
same,inhibition at 100 µM,"β‐amyloid (1–42) (Aβ42); Aβ42 50 µM, compound 100 µM",41.3 ± 3.3%
same,Selectivity index IC50AChE/IC50BChE,equine serum BChE,6.0
same,IC50,equine serum BChE,254 ± 23 nM
"O=C(NCCCCCCNc1c2c(nc3c1CCC3)CCCC2)c1ccccc1O [7b, N‐{6‐[(2,3,5,6,7,8‐Hexahydro‐1H‐cyclopenta[b]quinolin‐9‐yl)amino]hexyl}−2‐hydroxybenzamide]","αK i (noncompetitive inhibition constant), eqBChE",eqBChE,19.2 ± 0.9 nM
same,Ki,eqBChE,14.2 ± 1.1 nM
same,"αK i (noncompetitive inhibition constant), AChE",AChE,6.25 ± 0.44 µM
same,Ki,AChE,2600 ± 190 nM
same,IC50,[3],17600 ± 700 nM
same,"ABTS^•+‐scavenging activity, TEAC",[3],0.98 ± 0.04
same,"Propidium displacement, %",[4],11.6 ± 0.9%
same,IC50,human erythrocyte AChE,4240 ± 80 nM
same,"CES inhibition, %",porcine liver CES,12.3 ± 1.2%
same,inhibition at 100 µM,"β‐amyloid (1–42) (Aβ42); Aβ42 50 µM, compound 100 µM",53.4 ± 4.2%
same,Selectivity index IC50AChE/IC50BChE,equine serum BChE,193
same,IC50,equine serum BChE,22 ± 1 nM
"Oc1ccccc1C=NCCCCCCNc1c2c(nc3c1CCC3)CCCC2 [9b, 2‐[({6‐[(2,3,5,6,7,8‐Hexahydro‐1H‐cyclopenta[b]quinolin‐9‐yl)amino]hexyl}imino)methyl]phenol]","αK i (noncompetitive inhibition constant), eqBChE",eqBChE,89.0 ± 7.1 nM
same,Ki,eqBChE,50.1 ± 4.8 nM
same,"αK i (noncompetitive inhibition constant), AChE",AChE,4.98 ± 0.33 µM
same,Ki,AChE,1760 ± 120 nM
"Oc1ccccc1CNCCCCCCNc1c2c(nc3c1CCC3)CCCC2 [10b, 2‐[({6‐[(2,3,5,6,7,8‐Hexahydro‐1H‐cyclopenta[b]quinolin‐9‐yl)amino]hexyl}amino)methyl]phenol]",Type of BChE inhibition,eqBChE; Lineweaver–Burk analysis,mixed type of inhibition
same,"αK i (noncompetitive inhibition constant), eqBChE",eqBChE,45.4 ± 4.1 nM
same,Ki,eqBChE,21 ± 0.6 nM
same,Type of AChE inhibition,AChE; Lineweaver–Burk analysis,mixed type of inhibition
same,"αK i (noncompetitive inhibition constant), AChE",AChE,1.50 ± 0.03 µM
same,Ki,AChE,656 ± 11 nM
same,IC50,human erythrocyte AChE,1190 ± 50 nM
same,inhibition at 100 µM,"β‐amyloid (1–42) (Aβ42); Aβ42 50 µM, compound 100 µM",79.2 ± 5.5%
same,IC50,equine serum BChE,29.4 ± 0.6 nM
"O=[N+]([O-])c1ccc(OP(=O)(O)Oc2ccc([N+](=O)[O-])cc2)cc1 [BNPP, Bis‐4‐nitrophenyl phosphate, reference compound]","Propidium displacement, %",[4],n.а.
same,"AChE inhibition, %",human erythrocyte AChE; 20 µM,n.а.
same,"Inhibition of Aβ42 self‐aggregation, %","β‐amyloid (1–42) (Aβ42); Aβ42 50 µM, compound 100 µM",n.а.
same,"BChE inhibition, %",equine serum BChE; 20 µM,n.а.
"COc1cc2c(cc1OC)C(=O)C(CC1CCN(Cc3ccccc3)CC1)C2 (centres unmarked) [Donepezil, reference compound]","CES inhibition, %",porcine liver CES,n.а.
same,inhibition at 100 µM,β‐amyloid (1–42) (Aβ42),90.7 ± 7.1%
"O=c1c(O)c(-c2cc(O)c(O)c(O)c2)oc2cc(O)cc(O)c12 [Myricetin, reference compound]",inhibition at 100 µM,"β‐amyloid (1–42) (Aβ42); Aβ42 50 µM, compound 100 µM",79.4 ± 6.3%
"CC[N+](C)(CC)CCC[n+]1c(-c2ccccc2)c2cc(N)ccc2c2ccc(N)cc21.[I-].[I-] [Propidium iodide, reference compound]","Inhibition of Aβ42 self‐aggregation, %","β‐amyloid (1–42) (Aβ42); Aβ42 50 µM, compound 100 µM",90.7 ± 7.1%
"O=C(O)c1ccccc1O [Salicylic acid, reference compound]","ABTS^•+‐scavenging activity, TEAC",[3],did not show activity
same,"CES inhibition, %",porcine liver CES,8.9 ± 0.6%
"Cc1c(C)c2c(c(C)c1O)CCC(C)(C(=O)O)O2 (centres unmarked) [Trolox, 6-hydroxy-2,5,7,8-tetramethychroman-2-carboxylic acid, reference compound]",IC50,[3],19700 ± 1400 nM
same,"ABTS^•+‐scavenging activity, TEAC",[3],1.0
"CCCCCCNc1c2c(nc3c1CCC3)CCCC2 [compound 11, N‐hexyl‐2,3,5,6,7,8‐hexahydro‐1H‐cyclopenta[b]quinolin‐9‐amine]",IC50,human erythrocyte AChE,4300 ± 320 nM
same,"CES inhibition, %",porcine liver CES,5.6 ± 0.6%
same,Selectivity index IC50AChE/IC50BChE,equine serum BChE,16.4
same,IC50,equine serum BChE,262 ± 8 nM
"CCCCCCN=Cc1ccccc1O [compound 12, 2‐[(hexylimino)methyl]phenol]",IC50,[3],93300 ± 4100 nM
same,"ABTS^•+‐scavenging activity, TEAC",[3],0.15 ± 0.008
same,"AChE inhibition, %","human erythrocyte AChE; % inhibition at 20 μM, n.a. = not active",n.а.
same,"CES inhibition, %",porcine liver CES,1.9 ± 0.1%
same,inhibition at 20 µM,equine serum BChE,10.6 ± 0.1%
"CCCCCCNCc1ccccc1O [compound 13, 2‐[(hexylamino)methyl]phenol]",IC50,[3],10700 ± 400 nM
same,"ABTS^•+‐scavenging activity, TEAC",[3],1.52 ± 0.07
same,inhibition at 20 µM,human erythrocyte AChE,14 ± 0.6%
same,"CES inhibition, %",porcine liver CES,14.8 ± 0.5%
same,inhibition at 20 µM,equine serum BChE,26.9 ± 0.5%
